Laboratory results: patent US20070041944A1, “Treating tumors by ENH dislocation of ID proteins” (THE TRUSTEES OF COLUMBIA UNIVERSITY IN THE CITY OF NEW YORK, priority 2005, published 2007)

Columns and labels:
[1] = system: SH-N and SH-F cells; experiment: Cell-cycle exit of neuroblastoma cells treated with RA; format: cell-based, human; conditions: RA 0.1 μM
Description: Human neuroblastoma cells are frequently used as in vitro models to recapitulate differentiation of the nervous system. To ask whether ENH expression is regulated during differentiation of the nervous system, clonal derivatives of the human neuroblastoma cell line SK-N-SH, the SK-N-SH-N (SH-N) and SK-N-SH-F (SH-F) cells were used. These cells, which lack N-myc gene amplification, have been used to characterize the cell-cycle exit associated with differentiation of neural cells. When treated with a low concentration of RA (0.1 μM) SH-N cells undergo differentiation along the neuronal lineage, whereas SH-F cells acquire an epithelioid morphology and rapidly enter into a senescent-like state. Both cell types arrest in the G1 phase of the cell cycle within 48 h of treatment with RA. […] Although higher concentrations of RA led to marked inhibition of N-myc and Id2 gene expression in N-myc-amplified neuroblastoma cells, it was noted that RA at the concentration of 0.1 μM caused little change of Id2 expression in the SK-N-SH derivatives. However, a late decrease of Id2 protein was evident in RA-treated SH-N cells (FIG. 3D).

[2] = system: Flag-Id2 in SK-N-SH cells; experiment: Quantitative analysis of subcellular localization of Flag-Id2 after RA (double immunofluorescence); format: cell-based, human; conditions: 48 h, SK-N-SH expressing Flag-Id2, three independent experiments
Description: Quantitative Analysis of Subcellular Localization of Id2 and siRNA Experiments: SK-N-SH-Flag-Id2 cells untreated or treated with RA for 48 h were fixed in 4% paraformaldehyde. Flag-Id2 and endogenous ENH were immunostained by using Flag-M2 (Sigma) and ENH antibodies, respectively. SK-N-SH cells were transfected with vector or p3XFlag-ENH and immunostained by using Flag-M2 and Id2 (Zymed) antibodies. For silencing of ENH, ENH siRNA (siGenome Smartpool reagent M-006930-00) and control, nontargeting (siGenome Smartpool reagent D-001206-13) siRNA mixtures were purchased from Dharmacon. SK-N-SH cells stably expressing Flag-Id2 were treated with vehicle control or RA for 48 h and transfected with 60 nM siRNAs by using Lipofectamine 2000 (Invitrogen). Thirty-six hours after transfection cells were fixed in 4% paraformaldehyde and immunostained by using Flag-M2 antibodies. Parallel cultures were analyzed by Western blot. Secondary antibodies were FITC- or Cy3-conjugated anti-rabbit and Cy3-conjugated anti-mouse (Jackson ImmunoResearch). Nuclei were counterstained with DAPI. Slides were mounted in 90% glycerol in PBS and analyzed on an Olympus epifluorescence microscope. The percentage of cells displaying Id2 staining in the nucleus was scored by counting at least 500 cells from triplicate samples. […]

[3] = target: Flag-Id2; experiment: cell-based or functional assay
[4] = target: T1, full length Id2 as bait (entire coding sequence of human Id2 in bait plasmid pDBLeu) (human, UniProt Q02363 1-134); experiment: yeast two-hybrid screen of a human fetal brain cDNA library
T1 construct: Yeast two-hybrid bait (Proquest system, pDBLeu); also called Id2 bait
T1 sequence (looked up): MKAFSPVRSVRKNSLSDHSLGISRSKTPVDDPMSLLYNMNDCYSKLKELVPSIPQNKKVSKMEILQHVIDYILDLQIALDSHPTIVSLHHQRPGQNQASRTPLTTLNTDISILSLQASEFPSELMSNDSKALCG
Description: Yeast Two-Hybrid Screening: The Proquest system (Invitrogen Life Technologies, Carlsbad, Calif.) was used for yeast two-hybrid screening. The entire coding sequence of human Id2 was subcloned into the bait plasmid pDBLeu. A human fetal brain cDNA library in pPC86 was transformed into MaV203 yeast cells and screened for interactors with the bait plasmid according to the manufacturer's protocol.
To identify new interactors of Id2 from the nervous system, a yeast two-hybrid screen was conducted with a human fetal brain cDNA library using full length Id2 as bait. This screen yielded 47 validated cDNA clones corresponding to four different Id2-associated proteins. Among them, 24 clones code for Id2, 13 clones code for the bHLH transcription factor E2-2, eight clones code for the bHLH transcription factor HEB, and two clones code for the PDZ-LIM protein ENH. All Id2 and bHLH clones retain an intact HLH domain. This finding is consistent with the essential role of the HLH domain for heterodimerization. The presence of endogenous Id2 is explained by the strong homodimerization ability of Id2 and its abundant expression in the fetal brain.

CC1=C(/C=C/C(C)=C/C=C/C(C)=C/C(=O)O)C(C)(C)CCC1 [RA, retinoic acid]
time to arrest in the G1 phase of the cell cycle [1]: ≤ 48 h | cells with Flag-Id2 relocated to the cytoplasm ([2]; ENH positive cells after RA): ~60% | cells with Flag-Id2 relocated to the cytoplasm ([2]; ENH-negative cells after RA): 10%

endogenous ENH from RA-treated SK-N-SH neuroblastoma cells (from UniProt Q96HC4 2-596)
percentage of cells with cytoplasmic Flag-Id2 after RA treatment (double immunofluorescence) [3]: 60%

B1: C-terminal fragment of ENH (amino acids 461-596) of the two two-hybrid clones (other)
chain: EKGALYCELCYEKFFAPECGRCQRKILGEVINALKQTWHVSCFVCVACGKPIRNNVFHLEDGEPYCETDYYALFGTICHGCEFPIEAGDMFLEALGYTWHDTCFVCSVCCESLEGQTFFSKKDKPLCKKHAHSVNF
notes: Prey clones from a human fetal brain cDNA library in pPC86; also called ENH clones
binding result [4]: binds
